Reference: patent US20180256623A1, “COMPOSITIONS AND METHOD FOR REGULATING ADIPOSE TISSUE LIPOLYSIS, INSULIN-RESISTANCE, AND HYPERGLYCEMIA” (University of Virginia Patent Foundation, priority 2015, published 2018)

Test system: STZ mice
Experiment: Hemorrhage and resuscitation protocol with Pseudomonas aeruginosa respiratory infection in STZ mice
Type: in vivo
Details: in response to Atglistatin treatment
Source text: How preventing hyperglycemia can aid recovery and improve survival will be investigated. STZ mice will be subjected to hemorrhage protocol described above, but then resuscitated by fluid replacement to perform a survival surgery. The metabolic status will be followed for up to three days and indices of wound repair and susceptibility to postoperative pneumonia was monitored (FIG. 1). Control and T1DM mice, treated with Atglistatin to inhibit lipolysis or vehicle, will be subjected to the hemorrhage and resuscitation protocol. The ability of Atglistatin to improve survival under baseline conditions, as well as improve wound healing and recovery, will be determined. In addition, it will be determined whether attenuating postoperative hyperglycemia via Atglistatin administration improves survival from postoperative pseudomonal pneumonia and/or improve indices of pneumonia. […] Animals will be monitored for several hours after surgery taking hourly blood glucose measurements. […] Lung injury will be assessed by albumin ELISA in the bronchoalveolar lavage (BAL) fluid. Bacterial counts will be performed in the lung and blood, flow cytometric analysis of BAL cells will be done to assess for leukocyte infiltration and function, and BAL fluid as well as serum will be analyzed for inflammatory cytokine release. […]

Question: For `CN(C)C(=O)Nc1cccc(-c2ccc(N(C)C)cc2)c1` [Atglistatin, N′-[4′-(dimethylamino) [1,1′-biphenyl]-3-yl]-N,N-dimethyl-urea], which immune cell function is on record?
Answer: Its immune cell function is “restored to levels comparable with normoglycemic mice”.
